These are literature values, as cited in US12427126B2, “Niclosamide formulations and methods of use” (Florida State University Research Foundation, Inc., priority 2020, dated 2025).

The conditions of data set [1]: administered orally.

Each structure is given as a SMILES string.

With `O=C(Nc1ccc([N+](=O)[O-])cc1Cl)c1cc(Cl)ccc1O` [Niclosamide], the solubility entry is listed as “low solubility”. Further, the systemic bioavailability result in data set [1] is “low systemic bioavailability”.
